Data reported in US4122184A, “Benzimidazole insecticides” (priority 1977, dated 1978).

Assays:
Boll Weevil = experiment: Field trial (first summer), topical; type: in vivo, Anthonomus grandis; details: .078125 μg/μl
How it was run: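 Field trial from the first summer in which 1 µl of test solution holding a set number of micrograms of benzimidazole was applied topically to larvae or adult insects. Mortality at a given route and concentration was scored on a 0–9 scale.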

[1] = tested on: Southern Corn Rootworm Adults; experiment: Field trial, contact poison test; type: in vivo
How it was run: (§1)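 Infested plants in water-filled bottles sprayed by atomizer at 10 psi with compound at several concentrations. Mortality read at 24, 48 and 72 hours on a 0–9 scale (0 = 0-10%, 9 = 91-100%), averaged per concentration.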

[2] = tested on: Red-Legged Grasshopper Adults; experiment: Field trial, contact poison test; type: in vivo
How it was run: as §1

Bean Leaf Beetle = experiment: Field trial, contact poison test; type: in vivo
How it was run: as §1

Mexican Bean Beetle = Mexican Bean Beetle Test; type: in vivo, Epilachna varivestis (Coleoptera); details: 48 h
Description: Cuttings of four six-day old Bountiful snap bean plants containing two leaves with approximately 5 square inches of leaf surface, are placed in water. The leaves are sprayed to wetting with about 5-10 ml. of a formulation containing a pre-determined level of the test compound. Half of the formulation is sprayed on the top surface and half on the bottom surface of the leaf using a DeVilbiss atomizer at 10 psi held at a distance of about 18 inches from the leaf. After the leaves have dried, they are cut from the stem and placed separately in petri dishes. Ten third instar, nonmolting Mexican bean beetle larvae grown on Bountiful snap beans are placed on each leaf. Controls consist of two leaves sprayed with 5 ml. of a 500 ppm malathion formulation (reference standard), two leaves sprayed with the formulation without the active ingredient and two leaves are held as untreated controls. After 48 hours, a mortality count is made and the amount of feeding noted. Moribund larvae are counted as dead.

Alfalfa Weevil Larvae = experiment: Field trial, stomach poison test; type: in vivo
How it was run: (§2)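 Insects, five or ten per dish, are fed air-dried leaves that were dipped in or sprayed with the compound at two or three rates. Mortality is rated 0–9 at 24, 48 and 72 h and averaged per concentration.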

House Fly = experiment: Housefly (Stomach) Test; type: in vivo, Musca domestica (Diptera); details: 24 h
Description: Ten chilled house flies are taken from the rearing cage and placed in a covered petri dish. Sugar cubes treated with 0.2 ml. of a formulation containing a specified level of the insecticide are placed in the petri dish one hour after the flies have been removed from the chill room. Controls consist of sugar cubes treated with 0.2 ml. of deionized water and cubes treated with 0.2 ml. of a formulation containing 500 ppm of malathion. Mortality counts are made 24 hours later. The same rating scale is used as before.

Melon Aphid = Melon Aphid Test; type: in vivo, Aphis gossypii (Hemiptera); details: 24 h
Text: Four blue hubbard squash seeds are planted per container in vermiculite and the containers watered from the bottom. After 6 days, the two weakest plants are cut off and one cotyledon and the primary leaves are removed from each of the two remaining plants. The remaining cotyledon is infested with 100 melon aphids from a stock colony by pinning the cotyledon against an aphid-infested squash cotyledon from the colony and allowing the aphids to transfer. After transfer, the colony leaf is removed. Forty-eight hours later, the infested leaves are sprayed to wetting with formulations containing graded amounts of the insecticide using a DeVilbiss atomizer at 10 psi held at 12-15 inches from the plant. Controls consist of two infested, unsprayed squash plants and two infested plants sprayed to wetting with a formulation containing 100 ppm malathion as a reference standard. The mortality is estimated 24 hours after spraying by observation using a 10 power dissecting microscope. The same rating scale is used as before.

Aphids - Tulip Tree = experiment: Field trial, stomach poison test; type: in vivo
How it was run: as §2

Meadow Spittlebug = experiment: Field trial, stomach poison test; type: in vivo
How it was run: as §2

Aphids - Apple = experiment: Field trial, stomach poison test; type: in vivo
How it was run: as §2

[3] = tested on: Potato Flea Beetle Adults; experiment: Field trial, stomach poison test; type: in vivo
How it was run: as §2

Aphids - Sour Gum = experiment: Field trial, stomach poison test; type: in vivo
How it was run: as §2

## mixture of benzyl 2,6-bis(trifluoromethyl)-4-nitro-1-benzimidazolecarboxylate and benzyl 2,5-bis(trifluoromethyl)-7-nitro-1-benzimidazolecarboxylate
Boll Weevil
  insect mortality rating: 9 (91-100 percent mortality)
[1]; 25 ppm
  average mortality rating: 4
[1]; 50 ppm
  average mortality rating: 4
[1]; 100 ppm
  average mortality rating: 9 (91-100 percent mortality)
[2]; 25 ppm
  average mortality rating: 9 (91-100 percent mortality)
[2]; 50 ppm
  average mortality rating: 9 (91-100 percent mortality)
Bean Leaf Beetle; 25 ppm
  average mortality rating: 0 (0-10 percent)
Bean Leaf Beetle; 50 ppm
  average mortality rating: 2
Bean Leaf Beetle; 100 ppm
  average mortality rating: 7
Mexican Bean Beetle; 50 ppm
  mortality rating: 9 (91-100)
Mexican Bean Beetle; 100 ppm
  mortality rating: 9 (91-100)
Mexican Bean Beetle; 250 ppm
  mortality rating: 9 (91-100)
Mexican Bean Beetle; 500 ppm
  mortality rating: 9 (91-100)
Mexican Bean Beetle; 1000 ppm
  mortality rating: 9 (91-100)
Alfalfa Weevil Larvae; 125 ppm
  average mortality rating: 3
Alfalfa Weevil Larvae; 250 ppm
  average mortality rating: 5
Alfalfa Weevil Larvae; 500 ppm
  average mortality rating: 6
House Fly; 250 ppm
  mortality rating: 0 (0-10)
House Fly; 500 ppm
  mortality rating: 4 (41-50)
House Fly; 1000 ppm
  mortality rating: 9 (91-100)
Melon Aphid; 100 ppm
  mortality rating: 0 (0-10)
Melon Aphid; 250 ppm
  mortality rating: 5 (51-60)
Melon Aphid; 500 ppm
  mortality rating: 9 (91-100)
Melon Aphid; 1000 ppm
  mortality rating: 8 (81-90)

## CC(C)OC(=O)n1c(C(F)(F)F)nc2c([N+](=O)[O-])cc(C(F)(F)F)cc21 [I, isopropyl 2,6-bis(trifluoromethyl)-4-nitro-1-benzimidazolecarboxylate]
[2]; 10 ppm
  average mortality rating: 2
[2]; 25 ppm
  average mortality rating: 3
[2]; 50 ppm
  average mortality rating: 5
Bean Leaf Beetle; 25 ppm
  average mortality rating: 0 (0-10 percent)
Bean Leaf Beetle; 50 ppm
  average mortality rating: 0 (0-10 percent)
Bean Leaf Beetle; 100 ppm
  average mortality rating: 4
Mexican Bean Beetle; 25 ppm
  mortality rating: 6.5
Alfalfa Weevil Larvae; 125 ppm
  average mortality rating: 8
Alfalfa Weevil Larvae; 250 ppm
  average mortality rating: 4
Alfalfa Weevil Larvae; 500 ppm
  average mortality rating: 6
Aphids - Tulip Tree; 25 ppm
  average mortality rating: 5
Aphids - Tulip Tree; 50 ppm
  average mortality rating: 5
Aphids - Tulip Tree; 100 ppm
  average mortality rating: 5
Meadow Spittlebug; 10 ppm
  average mortality rating: 2
Meadow Spittlebug; 25 ppm
  average mortality rating: 5
Meadow Spittlebug; 50 ppm
  average mortality rating: 3
Aphids - Apple; 25 ppm
  average mortality rating: 1
Aphids - Apple; 50 ppm
  average mortality rating: 5
Aphids - Apple; 100 ppm
  average mortality rating: 9 (91-100 percent mortality)
[3]; 10 ppm
  average mortality rating: 6
[3]; 25 ppm
  average mortality rating: 8
[3]; 50 ppm
  average mortality rating: 8
[3]; 100 ppm
  average mortality rating: 9 (91-100 percent mortality)
Melon Aphid; 50 ppm
  mortality rating: 8.5
Melon Aphid; 250 ppm
  mortality rating: 6.5

## mixture of phenyl 2,6-bis(trifluoromethyl)-4-nitro-1-benzimidazolecarboxylate and phenyl 2,5-bis(trifluoromethyl)-1-benzimidazolecarboxylate
Boll Weevil
  insect mortality rating: 9 (91-100 percent mortality)
[1]; 25 ppm
  average mortality rating: 0 (0-10 percent)
[1]; 50 ppm
  average mortality rating: 3
[1]; 100 ppm
  average mortality rating: 7
[2]; 25 ppm
  average mortality rating: 1
[2]; 50 ppm
  average mortality rating: 7
Bean Leaf Beetle; 25 ppm
  average mortality rating: 0 (0-10 percent)
Bean Leaf Beetle; 50 ppm
  average mortality rating: 0 (0-10 percent)
Bean Leaf Beetle; 100 ppm
  average mortality rating: 4
Mexican Bean Beetle; 10 ppm
  mortality rating: 4 (41-50)
Mexican Bean Beetle; 25 ppm
  mortality rating: 3 (31-40)
Mexican Bean Beetle; 50 ppm
  mortality rating: 7 (71-80)
Mexican Bean Beetle; 100 ppm
  mortality rating: 9 (91-100)
Mexican Bean Beetle; 250 ppm
  mortality rating: 9 (91-100)
Mexican Bean Beetle; 500 ppm
  mortality rating: 9 (91-100)
Mexican Bean Beetle; 1000 ppm
  mortality rating: 9 (91-100)
House Fly; 100 ppm
  mortality rating: 0 (0-10)
House Fly; 1000 ppm
  mortality rating: 9 (91-100)
Melon Aphid; 25 ppm
  mortality rating: 0 (0-10)
Melon Aphid; 50 ppm
  mortality rating: 4 (41-50)
Melon Aphid; 100 ppm
  mortality rating: 8 (81-90)
Melon Aphid; 250 ppm
  mortality rating: 7 (71-80)
Melon Aphid; 500 ppm
  mortality rating: 8 (81-90)
Melon Aphid; 1000 ppm
  mortality rating: 6 (61-70)

## mixture of N,N-dimethyl-4-nitro-2,6-bis(trifluoromethyl)thio-1-benzimidazolecarboxamide and N,N-dimethyl-7-nitro-2,5-bis(trifluoromethyl)thio-1-benzimidazolecarboxamide [P]
Boll Weevil
  insect mortality rating: 9 (91-100 percent mortality)
Mexican Bean Beetle; 10 ppm
  mortality rating: 0 (0-10)
Mexican Bean Beetle; 25 ppm
  mortality rating: 0 (0-10)
Mexican Bean Beetle; 50 ppm
  mortality rating: 4.5
Mexican Bean Beetle; 100 ppm
  mortality rating: 7 (71-80)
Mexican Bean Beetle; 250 ppm
  mortality rating: 7.5
Mexican Bean Beetle; 500 ppm
  mortality rating: 8.5
Mexican Bean Beetle; 1000 ppm
  mortality rating: 9 (91-100)
House Fly; 50 ppm
  mortality rating: 0 (0-10)
House Fly; 100 ppm
  mortality rating: 3 (31-40)
House Fly; 250 ppm
  mortality rating: 7 (71-80)
House Fly; 500 ppm
  mortality rating: 9 (91-100)
Melon Aphid; 10 ppm
  mortality rating: 0 (0-10)
Melon Aphid; 25 ppm
  mortality rating: 1.5
Melon Aphid; 100 ppm
  mortality rating: 4 (41-50)
Melon Aphid; 250 ppm
  mortality rating: 7 (71-80)
Melon Aphid; 500 ppm
  mortality rating: 7.5
Melon Aphid; 1000 ppm
  mortality rating: 4.5

## O=[N+]([O-])c1cc(C(F)(F)F)cc2[nH]c(C(F)(F)Cl)nc12 [L, 2-chlorodifluoromethyl-4-nitro-6-trifluoromethylbenzimidazole]
[1]; 25 ppm
  average mortality rating: 5
[1]; 50 ppm
  average mortality rating: 8
[1]; 100 ppm
  average mortality rating: 9 (91-100 percent mortality)
[2]; 25 ppm
  average mortality rating: 7
[2]; 50 ppm
  average mortality rating: 9 (91-100 percent mortality)
Bean Leaf Beetle; 25 ppm
  average mortality rating: 0 (0-10 percent)
Bean Leaf Beetle; 50 ppm
  average mortality rating: 4
Bean Leaf Beetle; 100 ppm
  average mortality rating: 6
Mexican Bean Beetle; 50 ppm
  mortality rating: 8.5
Aphids - Sour Gum; 25 ppm
  average mortality rating: 7
Aphids - Sour Gum; 50 ppm
  average mortality rating: 7
Aphids - Sour Gum; 100 ppm
  average mortality rating: 9 (91-100 percent mortality)
Aphids - Tulip Tree; 25 ppm
  average mortality rating: 1
Aphids - Tulip Tree; 50 ppm
  average mortality rating: 1
Aphids - Tulip Tree; 100 ppm
  average mortality rating: 5
Meadow Spittlebug; 25 ppm
  average mortality rating: 0 (0-10 percent)
Meadow Spittlebug; 50 ppm
  average mortality rating: 1
Meadow Spittlebug; 100 ppm
  average mortality rating: 5
Aphids - Apple; 25 ppm
  average mortality rating: 1
Aphids - Apple; 50 ppm
  average mortality rating: 1
Aphids - Apple; 100 ppm
  average mortality rating: 4
House Fly; 50 ppm
  mortality rating: .5
Melon Aphid; 25 ppm
  mortality rating: 5.5
